Assay [1] relates to Murine macrophage lines (RAW264.7, J774.A1 or RAW264NO-). Nature of the assay: Phagocytosis assay in vitro (uptake of Alexa Fluor 488-labeled particles). It counts as cell-based. The gist of the method:
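Macrophages in serum-free EMEM took up Alexa Fluor 488 beads, yeast or E. coli (40 particles/cell) for 60 min at 37 °C with or without HSPs, LPS or control proteins. Trypan blue (0.8 mg/ml, 60 s) quenched external fluorescence, and intracellular signal was read as relative mean fluorescence intensity. Data are from 3 experiments, 3 wells/group, compared with medium alone by Student's t test.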

For assay [2], the system named is lipid raft (LR) microdomain of the macrophage plasma membrane. Nature of the assay: Binding of exogenous HRP-labeled HSP70 to purified lipid raft fractions. Details: species or system murine. The settings on record: HRP-labeled HSP70 100 μg/ml; with ganglioside GM1; Brij98 or Triton X-100. Here is the method:
Purification of lipid rafts. Lipid rafts were purified as DRMs (detergent resistant membrane) using non-ionic detergents following sucrose gradient centrifugation. […] After incubation, cells were washed 3× with PBS and lysed with 2 ml MES (4-morpholinoethanesulfonic acid) buffered saline (MBS; 150 mM NaCl, 20 mM MES, pH 6.5, […] and 5 mM iodoacetamide) containing 0.5% Triton X-100 or 1% for 30 minutes on ice or 7 minutes at 37° C. respectively. The cells were mixed with an equal volume of 90% sucrose in MEB buffer (150 mM NaCl, 20 mM MES [pH 6.5]) and placed at the bottom of the centrifuge tube. […] Fractions of 1 ml each were collected from the bottom of tube and each fraction was analyzed by SDS-PAGE and immunoblotting.
Briefly, RAW264.7 macrophages were treated with exogenous HRP-labeled HSP70 (100 μg/ml) or were left untreated for 60 minutes and washed with PBS three times to remove free HSPs. […] These fractions obtained (light: LR and heavy: non-LR) were then analyzed using immunoblotting to detect HRP activity of HSP70-HRP complexes or tested for the presence of an LR-associated ganglioside GM1 by using HRP-cholera toxin B. Similarly, these fractions were tested for the amount of cholesterol using (Biovision Research Products, CA). […]

Assay [3] has as its system full thickness wounds of naïve mice. The assay is described as follows: Adoptive transfer of pre-treated RAW 264.7 macrophages into wounded mice, wound closure. It counts as in vivo. Here is the method: Macrophage Cell Culture, Pre-treatment, and Adoptive Transfer. RAW 264.7 macrophages (ATCC) were grown as described by ATCC. Cells were harvested by gently scraping them from the cell culture flasks, centrifuged and washed once in cultured grade PBS. […] They were then washed 3 times with PBS, and were re-suspended to achieve a concentration of 400,000, 40,000, or 4,000 cells per 0.5 ml PBS. Adoptive transfer of these cells was performed by subcutaneous injections in the nape of the neck using a 25-gauge needle in mice that were wounded as previously described. Adoptive transfers were given on days 0, 2 and 4 post-operatively.
Macrophages were treated in vitro with either HSPs or non-HSP controls and transferred into naïve wounded mice (as described in Materials and Methods) to test if HSPs could in part mediate some of their activity through macrophages. […] Data is plotted as average percent wound closure ±SEM on day 2. *P values were obtained using the Student's t-test by comparing HSP treatment to all of the non-HSP control treatments. The least significant P value was reported.
Titratability of adoptive transfer was examined by transferring 4,000, 40,000 or 400,000 macrophages pre-treated as described in Materials and Methods.

For another assay, the system named is RAW 264.7 macrophages. Nature of the assay: In vitro macrophage phagocytosis of wound debris. Format: cell-based, murine. The conditions noted are these: RAW264.7, labeled wound debris, 37° C.

Data on one substance can be found in patent US20070098735A1, “Methods for the Elimination of Pathogens and Other Particulate Agents” (priority 2005, published 2007).

For “HSP70: heat shock protein purified from murine livers, prepared as a complex with endogenous peptide”, the “rank as stimulator of phagocytosis among the agents tested” value in assay [1] (HSP70 100 μg/ml vs TLR7-ligands 1 mg/ml) is recorded as “most potent stimulator of phagocytosis”. Moreover, in assay [1] (HSPs 100 μg/ml, P<0.01 vs medium alone), the “uptake of microbial or non-microbial materials as compared to control proteins or buffer” value is reported as “increase in uptake”. Further, the increase in phagocytosis in assay [1] (RAW264.7, labeled S. cerevisiae, HSP70 100 μg/ml, 60 minutes at 37° C.) is 4-6 times the basal rate. For the same substance, the “uptake of yeast by macrophages pre-treated with HSP and washed” value in assay [1] (compared with HSP and yeast administered simultaneously) was “enhanced the uptake of yeast to the same extent”. Further, the “doses unable to stimulate uptake” value in assay [1] (dose range 10-100 μg/ml) is listed as “less than 20 μg/ml”. In assay [1] (doses up to 200 μg/ml), the “quantity of phagocytosis at higher doses” value is “did not result in any further increase in the quantity of phagocytosis”. Also, in assay [1] (plateau through 100 μg/ml), the “dose at which the peak effect occurred” value came to 40 µg/mL. Moreover, the “ability to enhance phagocytosis” value in assay [1] (serum-free conditions, 1 hour, HSP70 100 μg/ml, LPS 25 ng-1 μg/ml, heating 100° C. for 20 minutes) is reported as “able to enhance phagocytosis equally whether in the presence or absence of serum”. Also, the “time for antigen uptake to reach a plateau” value in assay [1] (time-titration 10-90 minutes) is ≤ 45 min. For the same substance, in assay [2], the “localisation of exogenously administered HSP70” value was “co-localized on the LR-microdomain of the macrophage plasma membrane”. Also, the “titratability of adoptive transfer by cell number” value in assay [3] (4,000, 40,000 or 400,000 pre-treated macrophages) is reported as “Increasing the number of HSP pretreated cells increases the percentage of wound closure”. Further, the “early wound closure after adoptive transfer of pre-treated macrophages” value in assay [3] (400,000 macrophages pre-treated at 30 μg/dose) is on record as “significantly accelerated early wound closure”. Moreover, the “wound healing on day 2 after adoptive transfer of pre-treated macrophages” value in assay [3] (400,000 macrophages pre-treated at 30 μg/dose, day 2 post surgery) stood at 62%. Moreover, the “increase in phagocytosed wound debris compared to controls” value in the assay with RAW 264.7 macrophages worked out at 25%.
